Data: patent US20080009437A1, “Pharmaceutical Compositions and Method for Treating Dry Eye” (priority 2006, published 2008)
“And” between values parts separate entries of the source, which are not always exact repeats. Identical values can stand only once. “Also recorded” adds a separate entry of the source.

Tests used:
[1] = system: rabbit eye (anterior chamber paracentesis); assay: Pupillary diameter measurement, rabbit paracentesis model; type: in vivo; details: group mean, n=8 eyes
Procedure: (§1) Each rabbit was placed in a restraint device and tagged with the alphanumeric code. The formulations were instilled (50 μl) into the conjunctival sac of both eyes 180, 120, 90 and 30 min before the first paracentesis; then 15, 30, 90 min after the first paracentesis. To perform the first paracentesis the animals were anaesthetized by intraveneous injection of 5 mg/kg Zoletil® (Virbac; 2.5 mg/kg tiletamine HCl and 2.5 mg/kg zolazepam HCl) and one drop of local anesthetic (Novesina®, Novartis) was administered to the eye. Anterior chamber paracentesis was performed with a 26 G needle attached to a tuberculin syringe; the needle was introduced into the anterior chamber through the cornea, taking care not to damage the tissues. Two hours after the first paracentesis, the animals were sacrificed with 0.4 ml Tanax® (Intervet International B. V.) and the second paracentesis was performed. About 100 μl of aqueous humor were removed at the second paracentesis. Aqueous humor was immediately split in four aliquots and stored at −80° C. until analysis. Then both eyes were enucleated and the iris-ciliary body was carefully excised, placed in polypropylene tubes, and stored at −80° C. until analysis.
The pupillary diameter of both eyes was measured with a Castroviejo caliper 180 min and 5 min before the first paracentesis and 5 min before the second paracentesis.
(§2) Pupillary diameter, PGE2, protein, PMN, and MPO were expressed as mean±SEM. Statistical analysis was performed using one way ANOVA followed by a Newman-Keuls post hoc test. Clinical score was expressed as % of eyes and the statistical analysis was performed using Kruskal-Wallis followed by a Dunn post hoc test. P<0.05 was considered statistically significant in both cases. Prism 4 software (GraphPad Software, Inc.) was used for the analysis and graphs.

[2] = system: PGE2 in the aqueous humor; assay: Prostaglandin E2 (PGE2) measurement in aqueous humor; type: in vivo, Rabbit; details: individual eye sample, second paracentesis
[3] = system: leukocytes (PMN) in aqueous humor; assay: Leukocytes (PMN) measurement in aqueous humor; type: in vivo, Rabbit; details: second paracentesis; for PMN (number/μl) in aqueous humor, raw data: individual eye sample; for PMN in aqueous humor, Mean (number/μl): group mean
Procedure: as §1
For the determination of the number of leukocytes we used a haemocytometer (Improved Neubauer Chamber; Brigth-line, Hausser Scientific) and a Polyvar 2 microscope (Reichert-Jung).
as §2

[4] = system: rabbit paracentesis model; assay: Rabbit paracentesis model, overall anti-inflammatory activity; type: in vivo; details: 0.1%, 0.5% and 1% topical formulations; preliminary conclusions; listed as BOL-303242-X
Excerpt: Inflammatory processes are multidimensional in origin, and are characterized by complex cellular and molecular events involving numerous components all of which have not been identified. Prostaglandins are among these mediators and play an important role in certain forms of ocular inflammation. Paracentesis of the anterior chamber in the rabbit eye induces inflammatory reaction due to the disruption of the blood-aqueous barrier (“BAB”), which is mediated, at least in part, by prostaglandin E2 [References 1-3 below]. Intraocular or topical administration of PGE2 disrupts the BAB. [Reference 4, below] The treatment schedule adopted in this study was similar to the clinical NSAIDs (Ocufen) treatment schedule used by surgeons for patients before cataract surgery.
Each rabbit was placed in a restraint device and tagged with the alphanumeric code. The formulations were instilled (50 μl) into the conjunctival sac of both eyes 180, 120, 90 and 30 min before the first paracentesis; then 15, 30, 90 min after the first paracentesis. To perform the first paracentesis the animals were anaesthetized by intraveneous injection of 5 mg/kg Zoletil® (Virbac; 2.5 mg/kg tiletamine HCl and 2.5 mg/kg zolazepam HCl) and one drop of local anesthetic (Novesina®, Novartis) was administered to the eye. […]

SMILES	Mean (mm) Δ(T3-T1) pupillary diameter ([1]; 0.5% topical formulation) [mm]	PGE2 (ng/ml) in aqueous humor, raw data ([2]; 0.5% topical formulation)	PMN (number/μl) in aqueous humor, raw data ([3]; 0.5% topical formulation)	Mean (mm) Δ(T3-T1) pupillary diameter ([1]; 0.1% topical formulation) [mm]	PGE2 (ng/ml) in aqueous humor, raw data ([2]; 0.1% topical formulation)	PMN in aqueous humor, Mean (number/μl) ([3]; 0.1% topical formulation)	PMN (number/μl) in aqueous humor, raw data ([3]; 0.1% topical formulation)	Mean (mm) Δ(T3-T1) pupillary diameter ([1]; 0.03% topical formulation) [mm]	PGE2 (ng/ml) in aqueous humor, raw data ([2]; 0.03% topical formulation)	PMN in aqueous humor, Mean (number/μl) ([3]; 0.03% topical formulation)	PMN (number/μl) in aqueous humor, raw data ([3]; 0.03% topical formulation)	Mean (mm) Δ(T3-T1) pupillary diameter ([1]; 1% topical formulation) [mm]	PGE2 (ng/ml) in aqueous humor, raw data ([2]; 1% topical formulation) [ng/mL]	PMN (number/μl) in aqueous humor, raw data ([3]; 1% topical formulation)	Anti-inflammatory activity in rabbit paracentesis model (conclusion) [4]
CCOC(=O)O[C@]1(C(=O)OCCl)CC[C@H]2[C@@H]3CCC4=CC(=O)C=C[C@]4(C)[C@H]3[C@@H](O)C[C@@]21C [LE, loteprednol etabonate]	−0.9	^2N/D^ and 0.23 ng/ml and 0.68 ng/ml and 1.10 ng/ml	40 number/μl (2×) and 20 number/μl (3×) and 30 number/μl												
C[C@@H]1C[C@H]2[C@@H]3CCC4=CC(=O)C=C[C@]4(C)[C@@]3(F)[C@@H](O)C[C@]2(C)[C@@]1(O)C(=O)CO [Dex, dexamethasone]				−0.8	2.10 ng/mL and 1.30 ng/mL	30.000	20 number/μl (3×) and 50 number/μl and 40 number/μl and 30 number/μl								
CC(C(=O)O)c1ccc(-c2ccccc2)c(F)c1 (stereo not drawn) [F, flurbiprofen]								−0.9	0.75 ng/mL and 0.85 ng/mL and 0.93 ng/mL and 0.61 ng/mL	30.000	50 number/μl and 40 number/μl (2×) and 20 number/μl (2×) and 10 number/μl and 30 number/μl				
Cc1ccc2c(NCC(O)(CC(C)(C)c3cc(F)cc4c3OCC4)C(F)(F)F)cccc2n1 (stereo not drawn) [BOL]	−1.0	0.53 ng/mL and 0.75 ng/mL and 0.80 ng/mL	40 number/μl (2×) and 20 number/μl (3×) and 10 number/μl (3×)	−1.1	0.70 ng/mL		20 number/μl (4×) and 40 number/μl and 50 number/μl					−0.9	0.50	30 number/μl (3×) and 20 number/μl (3×) and 40 number/μl (2×)	active in this model; also recorded: as effective an anti-inflammatory drug as some of the commonly accepted prior-art steroids or NSAID
